Where two headings read alike, the source gives them in different places.
System: HCV Huh-luc/neo-ET replicon cells
Experiment: Luciferase-Based HCV Replicon Assay (EC50 (1b))
Assay type: cell-based
Details: Hepatitis C virus, HCV Huh-luc/neo-ET replicon cells, 72 hours, luciferase activity
Method: Luciferase-Based HCV Replicon Assay Protocol (EC50 (1b))
The cell culture component of the assay is performed essentially as described by Bartenschlager et al., Hepatology 2002, 35, 694-703, wherein exponentially growing HCV Huh-luc/neo-ET replicon cells were seeded at 6×10^3 cells/well in 96 well assay plate. 24 hours later the cells were treated with various concentrations of compound or combination of compounds in triplicate using both fixed ratios and checkerboard matrices of test agents and cultured for 72 hours. The luciferase activity in the wells was determined using Bright-Glo reagent (Promega, Madison, Wis.) with a luminometer (Wallac 1420 Multilabel HTS Counter Victor 2). The background control was replicon cells treated with 100 nM BILN-2061, an inhibitor of the HCV protease. % Inhibition was determined for each compound concentration in relation to the negative (no compound) control to calculate the EC50(1b).

[1] = read-out: EC50(1b) concentration

Row | Compound | EC50 (read-out: EC50 (1b)) [nM] | EC50 [1] [nM]
1 | CS(=O)(=O)Nc1ccc2c(c1)S(=O)(=O)NC(C1=C(O)[C@@H]3[C@H]4CC[C@H](C4)[C@@H]3N(Cc3cccc(F)c3)C1=O)=N2 [Example 21, N-{3-[(1R,2S,7R,8S)-3-(3-Fluoro-benzyl)-6-hydroxy-4-oxo-3-aza-tricyclo[6.2.1.0^2,7]undec-5-en-5-yl]-1,1-dioxo-1,2-dihydro-1λ^6-benzo[1,2,4]thiadiazin-7-yl}-methanesulfonamide] | 5 to 25 | < 25
2 | CS(=O)(=O)Nc1ccc2c(c1)S(=O)(=O)N=C(C1=C(O)[C@@H]3C4CCC(CC4)[C@@H]3N(Cc3ccccc3Br)C1=O)N2 [Example 6, N-{3-[(2S,7R)-3-(2-Bromo-benzyl)-6-hydroxy-4-oxo-3-aza-tricyclo[6.2.2.0^2,7]dodec-5-en-5-yl]-1,1-dioxo-1,4-dihydro-1λ^6-benzo[1,2,4]thiadiazin-7-yl}-methanesulfonamide] | < 5 | < 25
3 | CS(=O)(=O)Nc1ccc2c(c1)S(=O)(=O)N=C(C1=C(O)[C@@H]3C4CCC(CC4)[C@@H]3N(Cc3ccc(F)c(Cl)c3)C1=O)N2 [Example 8, N-{3-[(2S,7R)-3-(3-Chloro-4-fluoro-benzyl)-6-hydroxy-4-oxo-3-aza-tricyclo[6.2.2.0^2,7]dodec-5-en-5-yl]-1,1-dioxo-1,4-dihydro-1λ^6-benzo[1,2,4]thiadiazin-7-yl}-methanesulfonamide] | < 5 | < 25
4 | CS(=O)(=O)Nc1ccc2c(c1)S(=O)(=O)NC(C1=C(O)[C@@H]3[C@H]4CC[C@H](C4)[C@@H]3N(Cc3ccc(F)c(F)c3F)C1=O)=N2 [Example 24, N-{3-[(1R,2S,7R,8S)-6-Hydroxy-4-oxo-3-(2,3,4-trifluoro-benzyl)-3-aza-tricyclo[6.2.1.0^2,7]undec-5-en-5-yl]-1,1-dioxo-1,2-dihydro-1λ^6-benzo[1,2,4]thiadiazin-7-yl}-methanesulfonamide] | 5 to 25 | < 25
5 | CS(=O)(=O)Nc1ccc2c(c1)S(=O)(=O)NC(C1=C(O)[C@@H]3[C@H]4CC[C@H](C4)[C@@H]3N(Cc3cccs3)C1=O)=N2 [Example 27, N-{3-[(1R,2S,7R,8S)-6-Hydroxy-4-oxo-3-thiophen-2-ylmethyl-3-aza-tricyclo[6.2.1.0^2,7]undec-5-en-5-yl]-1,1-dioxo-1,2-dihydro-1λ^6-benzo[1,2,4]thiadiazin-7-yl}-methanesulfonamide] | 5 to 25 | < 25
6 | CS(=O)(=O)Nc1ccc2c(c1)S(=O)(=O)NC(C1=C(O)[C@@H]3[C@@H]4CC[C@@H](C4)[C@@H]3N(Cc3cccc(F)c3)C1=O)=N2 [Example 30] | 5 to 25 | < 25
7 | CS(=O)(=O)Nc1ccc2c(c1)S(=O)(=O)NC(C1=C(O)[C@@H]3[C@@H]4CC[C@@H](C4)[C@@H]3N(CC3(C(F)(F)F)CC3)C1=O)=N2 [Example 22, N-{3-[(1S,2S,7R,8R)-6-Hydroxy-4-oxo-3-(1-trifluoromethyl-cyclopropylmethyl)-3-aza-tricyclo[6.2.1.0^2,7]undec-5-en-5-yl]-1,1-dioxo-1,2-dihydro-1λ^6-benzo[1,2,4]thiadiazin-7-yl}-methanesulfonamide] | 5 to 25 | < 25
8 | COc1cc(CN2C(=O)C(C3=NS(=O)(=O)c4cc(NS(C)(=O)=O)ccc4N3)=C(O)[C@@H]3C4CCC(CC4)[C@@H]32)ccc1F [Example 7, N-{3-[(2S,7R)-3-(4-Fluoro-3-methoxy-benzyl)-6-hydroxy-4-oxo-3-aza-tricyclo[6.2.2.0^2,7]dodec-5-en-5-yl]-1,1-dioxo-1,4-dihydro-1λ^6-benzo[1,2,4]thiadiazin-7-yl}-methanesulfonamide] | < 5 | < 25

From US8129368B2, “5,6-dihydro-1H-pyridin-2-one compounds” (priority 2008, dated 2012)
